Values after ≈ are worked out from the molar mass of the structure shown.
System: A. baumannii 49
Experiment: In vitro antibacterial activity test (broth microdilution)
Format: cell-based
Settings: Acinetobacter baumannii; A. baumannii 49; read-out: MIC90
Procedure: (§1) To evaluate antibacterial activity of each of the compounds of Examples 1 to 68, in vitro antibacterial activity test was performed.
(§2) The in vitro antibacterial activity was evaluated by measuring MIC90 (ug/mL) of each of the compounds of Examples 1 to 68, which is defined as the lowest concentration of an antibiotic that will inhibit the visible growth of 90% of microorganisms after incubation as compared with a control group to which the antibiotic is not treated. MIC90 values were measured by the broth microdilution method developed by the Clinical and Laboratory Standards Institute (CLSI) (see CLSI M7-A5, Methods for Dilution Antimicrobial Susceptibility Test for Bacteria that Grow Aerobically-Fifth Edition (2000): CLSI, Villanova, Pa.).
(§3) In vitro antibacterial activity was measured with respect to the following 19 clinical isolates: M. catarrhalis; P. aeruginosa (5 strains); K. pneumoniae (6 strains); A. baumannii (3 strains); E. coli (2 strains); A. calcoaceticus; and E. cloacae.
(§4) Test compounds each (the cephalosporin derivative compounds prepared in Examples 1 to 68) were dissolved in DMSO at the concentration of 10,240 ug/mL, were diluted by two fold with DMSO, and then were diluted by twenty fold with sterilized distilled water. The final concentration in the antibacterial activity test was in the range of […] to 128 ug/mL, and the final concentration of DMSO used as an adjuvant was 2.5% (V/V).

| SMILES | MIC90 |
| --- | --- |
| CN(CCNc1c[n+](CC2=C(C(=O)[O-])N3C(=O)[C@@H](NC(=O)/C(=N\OC(C)(C)C(=O)O)c4csc(N)n4)C3SC2)cnc1N)C(=O)c1ccc(O)c(O)c1 (stereo partly drawn) [Compound 27] | > 128 µg/mL |

System: A. calcoaceticus ATCC15473
Experiment: as above
Format: cell-based
Settings: Acinetobacter calcoaceticus; A. calcoaceticus ATCC15473; read-out: MIC90
Procedure: as §1, §2, §3, §4

| SMILES | MIC90 |
| --- | --- |
| CN(CCNc1c[n+](CC2=C(C(=O)[O-])N3C(=O)[C@@H](NC(=O)/C(=N\OC(C)(C)C(=O)O)c4csc(N)n4)C3SC2)cnc1N)C(=O)c1ccc(O)c(O)c1 (stereo partly drawn) [Compound 27] | 4 µg/mL (≈ 5.19 µM) |

System: K. pneumoniae 2011E
Experiment: as above
Format: cell-based
Settings: Klebsiella pneumoniae, 2011E, K. pneumoniae 2011E; read-out: MIC90
Procedure: as §1, §2, §3, §4

| SMILES | MIC90 |
| --- | --- |
| CN(CCNc1c[n+](CC2=C(C(=O)[O-])N3C(=O)[C@@H](NC(=O)/C(=N\OC(C)(C)C(=O)O)c4csc(N)n4)C3SC2)cnc1N)C(=O)c1ccc(O)c(O)c1 (stereo partly drawn) [Compound 27] | 2 µg/mL (≈ 2.59 µM) |

System: P. aeruginosa 43
Experiment: as above
Format: cell-based
Settings: Pseudomonas aeruginosa; P. aeruginosa 43; read-out: MIC90
Procedure: as §1, §2, §3, §4

| SMILES | MIC90 |
| --- | --- |
| CN(CCNc1c[n+](CC2=C(C(=O)[O-])N3C(=O)[C@@H](NC(=O)/C(=N\OC(C)(C)C(=O)O)c4csc(N)n4)C3SC2)cnc1N)C(=O)c1ccc(O)c(O)c1 (stereo partly drawn) [Compound 27] | 1 µg/mL (≈ 1.3 µM) |

System: E. cloacae β19
Experiment: as above
Format: cell-based
Settings: Enterobacter cloacae, read-out: MIC90
Procedure: as §1, §2, §3, §4

| SMILES | MIC90 |
| --- | --- |
| CN(CCNc1c[n+](CC2=C(C(=O)[O-])N3C(=O)[C@@H](NC(=O)/C(=N\OC(C)(C)C(=O)O)c4csc(N)n4)C3SC2)cnc1N)C(=O)c1ccc(O)c(O)c1 (stereo partly drawn) [Compound 27] | 16 µg/mL (≈ 20.8 µM) |

System: P. aeruginosa 37
Experiment: as above
Format: cell-based
Settings: Pseudomonas aeruginosa, 37, P. aeruginosa 37; read-out: MIC90
Procedure: as §1, §2, §3, §4

| SMILES | MIC90 |
| --- | --- |
| CN(CCNc1c[n+](CC2=C(C(=O)[O-])N3C(=O)[C@@H](NC(=O)/C(=N\OC(C)(C)C(=O)O)c4csc(N)n4)C3SC2)cnc1N)C(=O)c1ccc(O)c(O)c1 (stereo partly drawn) [Compound 27] | 2 µg/mL (≈ 2.59 µM) |

System: E. coli AG100
Experiment: as above
Format: cell-based
Settings: Escherichia coli, AG100, E. coli AG100; read-out: MIC90
Procedure: as §1, §2, §3, §4

| SMILES | MIC90 |
| --- | --- |
| CN(CCNc1c[n+](CC2=C(C(=O)[O-])N3C(=O)[C@@H](NC(=O)/C(=N\OC(C)(C)C(=O)O)c4csc(N)n4)C3SC2)cnc1N)C(=O)c1ccc(O)c(O)c1 (stereo partly drawn) [Compound 27] | 1 µg/mL (≈ 1.3 µM) |

System: P. aeruginosa 40
Experiment: as above
Format: cell-based
Settings: Pseudomonas aeruginosa, 40, P. aeruginosa 40; read-out: MIC90
Procedure: as §1, §2, §3, §4

| SMILES | MIC90 |
| --- | --- |
| CN(CCNc1c[n+](CC2=C(C(=O)[O-])N3C(=O)[C@@H](NC(=O)/C(=N\OC(C)(C)C(=O)O)c4csc(N)n4)C3SC2)cnc1N)C(=O)c1ccc(O)c(O)c1 (stereo partly drawn) [Compound 27] | 2 µg/mL (≈ 2.59 µM) |

System: A. baumannii 52
Experiment: as above
Format: cell-based
Settings: Acinetobacter baumannii; A. baumannii 52; read-out: MIC90
Procedure: as §1, §2, §3, §4

| SMILES | MIC90 |
| --- | --- |
| CN(CCNc1c[n+](CC2=C(C(=O)[O-])N3C(=O)[C@@H](NC(=O)/C(=N\OC(C)(C)C(=O)O)c4csc(N)n4)C3SC2)cnc1N)C(=O)c1ccc(O)c(O)c1 (stereo partly drawn) [Compound 27] | > 128 µg/mL |

System: A. baumannii 46
Experiment: as above
Format: cell-based
Settings: Acinetobacter baumannii; A. baumannii 46; read-out: MIC90
Procedure: as §1, §2, §3, §4

| SMILES | MIC90 |
| --- | --- |
| CN(CCNc1c[n+](CC2=C(C(=O)[O-])N3C(=O)[C@@H](NC(=O)/C(=N\OC(C)(C)C(=O)O)c4csc(N)n4)C3SC2)cnc1N)C(=O)c1ccc(O)c(O)c1 (stereo partly drawn) [Compound 27] | 16 µg/mL (≈ 20.8 µM) |

System: M. catarrhalis 2524
Experiment: as above
Format: cell-based
Settings: Moraxella catarrhalis; M. catarrhalis 2524; read-out: MIC90
Procedure: as §1, §2, §3, §4

| SMILES | MIC90 |
| --- | --- |
| CN(CCNc1c[n+](CC2=C(C(=O)[O-])N3C(=O)[C@@H](NC(=O)/C(=N\OC(C)(C)C(=O)O)c4csc(N)n4)C3SC2)cnc1N)C(=O)c1ccc(O)c(O)c1 (stereo partly drawn) [Compound 27] | 0.25 µg/mL (≈ 0.324 µM) |

System: P. aeruginosa 1912E
Experiment: as above
Format: cell-based
Settings: Pseudomonas aeruginosa, 1912E, read-out: MIC90
Procedure: as §1, §2, §3, §4

| SMILES | MIC90 |
| --- | --- |
| CN(CCNc1c[n+](CC2=C(C(=O)[O-])N3C(=O)[C@@H](NC(=O)/C(=N\OC(C)(C)C(=O)O)c4csc(N)n4)C3SC2)cnc1N)C(=O)c1ccc(O)c(O)c1 (stereo partly drawn) [Compound 27] | 1 µg/mL (≈ 1.3 µM) |

System: E. coli β4
Experiment: as above
Format: cell-based
Settings: Escherichia coli, read-out: MIC90
Procedure: as §1, §2, §3, §4

| SMILES | MIC90 |
| --- | --- |
| CN(CCNc1c[n+](CC2=C(C(=O)[O-])N3C(=O)[C@@H](NC(=O)/C(=N\OC(C)(C)C(=O)O)c4csc(N)n4)C3SC2)cnc1N)C(=O)c1ccc(O)c(O)c1 (stereo partly drawn) [Compound 27] | 2 µg/mL (≈ 2.59 µM) |

System: K. pneumoniae β14
Experiment: as above
Format: cell-based
Settings: Klebsiella pneumoniae, read-out: MIC90
Procedure: as §1, §2, §3, §4

| SMILES | MIC90 |
| --- | --- |
| CN(CCNc1c[n+](CC2=C(C(=O)[O-])N3C(=O)[C@@H](NC(=O)/C(=N\OC(C)(C)C(=O)O)c4csc(N)n4)C3SC2)cnc1N)C(=O)c1ccc(O)c(O)c1 (stereo partly drawn) [Compound 27] | 32 µg/mL (≈ 41.5 µM) |

System: P. aeruginosa 6065Y
Experiment: as above
Format: cell-based
Settings: Pseudomonas aeruginosa, read-out: MIC90
Procedure: as §1, §2, §3, §4

| SMILES | MIC90 |
| --- | --- |
| CN(CCNc1c[n+](CC2=C(C(=O)[O-])N3C(=O)[C@@H](NC(=O)/C(=N\OC(C)(C)C(=O)O)c4csc(N)n4)C3SC2)cnc1N)C(=O)c1ccc(O)c(O)c1 (stereo partly drawn) [Compound 27] | 4 µg/mL (≈ 5.19 µM) |

Reference: patent publication US9630977B2, “Cephalosporin derivatives and pharmaceutical compositions thereof” (Legochem Biosciences, Inc., priority 2011, dated 2017)
